Data on 17 molecules can be found in patent US11066392B2, “Inhibitors of indoleamine 2,3-dioxygenase and methods of their use” (BRISTOL-MYERS SQUIBB COMPANY, priority 2017, dated 2021).

Where two headings read alike, the source gives them in different places.

For one assay, the target named is T1, human IDO1 (Homo sapiens, UniProt P14902).
T1 construct: expressed in transfected cells
In words: HEK293 cell-based indoleamine 2,3-dioxygenase (IDO) assay. As to conditions: human IDO1/HEK293 cells. On the procedure:
Assessment of inhibitor activity in HEK293 cell-based indoleamine 2,3-dioxygenase (IDO) assay.
HEK293 cells were transfected with a pCDNA-based mammalian expression vector harboring human IDO1 cDNA (NM 002164.2) by electroporation. They were cultured in medium (DMEM with 10% FBS) containing 1 mg/ml G418 for two weeks. Clones of HEK293 cells that stably expressed human IDO1 protein were selected and expanded for IDO inhibition assay.
The human IDO1/HEK293 cells were seeded at 10,000 cells per 50 μL per well with RPMI/phenol red free media contains 10% FBS in a 384-well black wall clear bottom tissue culture plate (Matrix Technologies LLC) 100 nL of certain concentration of compound was then added to each well using ECHO liquid handling systems. The cells were incubated for 20 hours in 37° C. incubator with 5% CO2.
The compound treatments were stopped by adding trichloroacetic acid (Sigma-Aldrich) to a final concentration at 0.2%. The cell plate was further incubated at 50° C. for 30 minute. The equal volume supernatant (20 μL) and 0.2% (w/v) Ehrlich reagent (4-dimethylaminobenzaldehyde, Sigma-Aldrich) in glacial acetic acid were mixed in a new clear bottom 384-well plate. This plate was then incubated at room temperature for 30 minute. The absorbance at 490 nm was measured on Envision plate reader.
Compound IC50 values were calculated using the counts of 500 nM of a reference standard treatment as one hundred percent inhibition, and counts of no compound but DMSO treatment as zero percent inhibition.
Activity for compounds described herein is provided in Table 1, wherein potency levels are provided as follows: (Potency: IDO IC50: A<0.01 μM; B<0.1 μM; C<10 μM)

Assay [1] addresses indoleamine 2,3-dioxygenase (IDO) (Homo sapiens, UniProt P14902). As to the kind of experiment: HeLa cell-based indoleamine 2,3-dioxygenase (IDO) assay (kynurenine production, IFNγ-stimulated). As to conditions: HeLa cells.
The mark [2] stands for this setting: 20 hours incubation, read-out: IDO1 HEK Human IC50.
The mark [3] stands for this setting: potency class, read-out: Patent Potency Hela IC50 A < 10 nM, B > 10 nM, C > 100 nM.
The mark [4] stands for this setting: IFNγ 25 ng/mL, 48 hour incubation, read-out: IDO Hela IC50.

Chain of indoleamine 2,3-dioxygenase (IDO) (P14902 whole entry): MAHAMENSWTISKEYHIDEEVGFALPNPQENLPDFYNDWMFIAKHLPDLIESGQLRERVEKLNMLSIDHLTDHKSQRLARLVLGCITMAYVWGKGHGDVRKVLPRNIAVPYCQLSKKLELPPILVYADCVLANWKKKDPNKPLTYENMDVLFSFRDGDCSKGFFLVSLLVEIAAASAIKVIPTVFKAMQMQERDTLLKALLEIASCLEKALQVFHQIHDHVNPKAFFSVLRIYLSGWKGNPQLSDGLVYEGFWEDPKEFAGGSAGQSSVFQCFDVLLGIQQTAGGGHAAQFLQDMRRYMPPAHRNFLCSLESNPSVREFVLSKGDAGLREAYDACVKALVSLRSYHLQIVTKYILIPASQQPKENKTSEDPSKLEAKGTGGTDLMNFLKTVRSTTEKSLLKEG
T1 sequence (P14902 whole entry): as above

What is called IC50 is the midpoint of a concentration-inhibition curve. Turning to `CC[C@@H](NC(=O)c1ccc(OC)nc1)[C@H]1CC[C@@H](c2ccnc3ccc(F)cc32)CC1` (single isomer, unassigned) [Example 10a, N-(1-(4-(6-Fluoroquinolin-4-yl)cyclohexyl)propyl)-6-methoxynicotinamide], the IC50 on human IDO1 (setting [2]) worked out at 224 nM. As for `CC[C@@H](NC(=O)c1ccc(OC)nc1)[C@H]1CC[C@@H](c2ccnc3ccc(F)cc32)CC1` (single isomer, unassigned) [Example 10b, N-(1-(4-(6-Fluoroquinolin-4-yl)cyclohexyl)propyl)-6-methoxynicotinamide], the IC50 in assay [1] (setting [3]) is under 10 nM; at human IDO1 (potency class, read-out: Patent Potency HEK IC50 A < 10 nM, B > 10 nM, C > 100 nM), under 10 nM. Regarding `CC[C@@H](NC(=O)c1ccc(OC)nc1)[C@H]1CC[C@@H](c2ccnc3ccc(F)cc32)CC1` (single isomer, unassigned) [Example 10c, N-(1-(4-(6-Fluoroquinolin-4-yl)cyclohexyl)propyl)-6-methoxynicotinamide], at human IDO1 (setting [2]), the IC50 stood at 55 nM. With `CC[C@@H](NC(=O)c1ccc(OC)nc1)[C@H]1CC[C@@H](c2ccnc3ccc(F)cc32)CC1` (single isomer, unassigned) [Example 10d, N-(1-(4-(6-Fluoroquinolin-4-yl)cyclohexyl)propyl)-6-methoxynicotinamide], the IC50 on human IDO1 (setting [2]) was found to be 37 nM. Turning to `COc1ccc(-c2ccc(C(=O)N[C@H](C)[C@H]3CC[C@@H](c4ccnc5ccc(F)cc54)CC3)cn2)cn1` [Example 1, N—((R)-1-((1s,4s)-4-(6-Fluoroquinolin-4-yl)cyclohexyl)ethyl)-6′-methoxy-2,3′-bipyridine-5-carboxamide], the 50% inhibitory concentration (IC50) in assay [1] (setting [4]) is 30 nM; on human IDO1 (setting [2]), 56 nM. With `COc1ccc(C(=O)N[C@H](C)[C@H]2CC[C@@H](c3ccnc4ccc(F)cc43)CC2)cn1` [Example 2, N-((R)-1-((1s,4S)-4-(6-Fluoroquinolin-4-yl)cyclohexyl)ethyl)-6-methoxynicotinamide], the results for the IC50 (in assay [1] (setting [3]); on human IDO1 (setting [2])) were under 10 nM and 1 nM, respectively. In the case of `C[C@@H](NC(=O)c1ccc(O)nc1)[C@H]1CC[C@@H](c2ccnc3ccc(F)cc32)CC1` [Example 3, N-((R)-1-((1s,4S)-4-(6-Fluoroquinolin-4-yl)cyclohexyl)ethyl)-6-hydroxynicotinamide], the IC50 on human IDO1 (setting [2]) worked out at 252 nM. Consider `C[C@@H](NC(=O)c1ccc(-n2cccn2)nc1)[C@H]1CC[C@@H](c2ccnc3ccc(F)cc32)CC1` [Example 4, N-((R)-1-((1s,4S)-4-(6-Fluoroquinolin-4-yl)cyclohexyl)ethyl)-6-(1H-pyrazol-1-yl)nicotinamide], for which the results for the IC50 (in assay [1] (setting [4]); at human IDO1 (setting [2])) were 10 nM and 11 nM, respectively. As to `C[C@@H](NC(=O)c1ccc(Cl)nc1)[C@H]1CC[C@@H](c2ccnc3ccc(F)cc32)CC1` [Example 5, 6-Chloro-N-((R)-1-((1s,4S)-4-(6-fluoroquinolin-4-yl)cyclohexyl)ethyl)nicotinamide], the IC50 was under 10 nM in assay [1] (setting [3]) and 10 nM on human IDO1 (setting [2]). For `COCCOc1ccc(-c2ccc(C(=O)N[C@H](C)[C@H]3CC[C@@H](c4ccnc5ccc(F)cc54)CC3)cn2)cc1` [Example 6], on human IDO1 (setting [2]), the IC50 is 488 nM.

Consider `C[C@@H](NC(=O)c1ccc(F)nc1)[C@H]1CC[C@@H](c2ccnc3ccc(F)cc32)CC1` [Example 7, 6-Fluoro-N-((R)-1-((1s,4S)-4-(6-fluoroquinolin-4-yl)cyclohexyl)ethyl)nicotinamide], for which the IC50 in assay [1] (setting [4]) was 10 nM; on human IDO1 (setting [2]), 5 nM. The corresponding values for `COc1ncc(C(=O)N[C@H](C)[C@H]2CC[C@@H](c3ccnc4ccc(F)cc43)CC2)cn1` [Example 8, N-((R)-1-((1s,4S)-4-(6-Fluoroquinolin-4-yl)cyclohexyl)ethyl)-2-methoxypyrimidine-5-carboxamide] are 10 nM and 5 nM. Consider `Cc1ncc(C(=O)N[C@H](C)[C@H]2CC[C@@H](c3ccnc4ccc(F)cc43)CC2)cn1` [Example 9, N-((R)-1-((1s,4S)-4-(6-Fluoroquinolin-4-yl)cyclohexyl)ethyl)-2-methylpyrimidine-5-carboxamide], for which the IC50 on human IDO1 (setting [2]) was determined as 28 nM. In the case of `C[C@@H](NC(=O)c1cccnc1)[C@H]1CC[C@@H](c2ccnc3ccc(F)cc32)CC1` [Example 33, N—((R)-1-((cis)-4-(6-fluoroquinolin-4-yl)cyclohexyl)ethyl)nicotinamide], the IC50 (in assay [1] (setting [4]); on human IDO1 (setting [2])) was 10 nM throughout.

As for `C[C@@H](NC(=O)c1ccncc1)[C@H]1CC[C@@H](c2ccnc3ccc(F)cc32)CC1` [Example 34, N-((R)-1-((cis)-4-(6-fluoroquinolin-4-yl)cyclohexyl)ethyl)isonicotinamide], the IC50 was 10 nM in assay [1] (setting [4]) and 13 nM on human IDO1 (setting [2]).

As for `C[C@@H](NC(=O)c1cnccn1)[C@H]1CC[C@@H](c2ccnc3ccc(F)cc32)CC1` [Example 35, N-((R)-1-((cis)-4-(6-fluoroquinolin-4-yl)cyclohexyl)ethyl)pyrazine-2-carboxamide], the IC50 in assay [1] (setting [4]) came out at 10 nM; at human IDO1 (setting [2]) it was 22 nM. With `C[C@@H](NC(=O)c1cncnc1)[C@H]1CC[C@@H](c2ccnc3ccc(F)cc32)CC1` [Example 36, N-((R)-1-((cis)-4-(6-fluoroquinolin-4-yl)cyclohexyl)ethyl)pyrimidine-5-carboxamide], the IC50 amounted to 30 nM in assay [1] (setting [4]) and 39 nM at human IDO1 (setting [2]).
